From US4564619A, “Carbostyril derivative” (Otsuka Pharmaceutical Co., Ltd., priority 1982, dated 1986)

Legend:
[1] = test system: ADP-induced aggregation in rabbit platelets; assay: Inhibition of ADP-induced platelet aggregation in rabbit platelet rich plasma; format: cell-based; details: Oryctolagus cuniculus, read-out: Inhibition rate of ADP-induced aggregation; for inhibition at 100 µM (stock): Concentration of the test compound solution 10^-4 mole; for inhibition at 10 µM (stock): Concentration of the test compound solution 10^-5 mole
Method: (§1) The platelet aggregation inhibitory effect was measured by using a Platelet Aggregation Tracer Model PAT-6M (manufactured by Nikoh Bio-Science Co., Ltd.) by a method according to Kimura, et al., [IGAKU-NO-AYUMI (Progress in Medicine), Vol. 114, No. 9, pp. 718-727, Aug. 30, 1980, and Nature, pp. 927-929, 1962].
(§2) The blood sample used for the test was a 1:9 (by volume) mixture of "3.8%-CITRATE"® (a registered trademark for 3.8%-sodium citrate, manufactured by Green Cross Corp.) and whole blood collected from rabbits. Said sample was subjected to 10-minute centrifugal separation at 1,000 r.p.m. (200xG) to obtain a platelet rich plasma (PRP). The PRP thus obtained was separated, and the remaining blood sample was further subjected to 15-minute centrifugal separation at 3,000 r.p.m. (2,000xG) to obtain a platelet poor plasma (PPP).
(§3) The number of platelets in the PRP was counted by the Brecher-Clonkite Method, and the PRP was diluted with the PPP to prepare a PRP sample with a platelet concentration of 600,000/microliter to prepare for an adenosine diphosphate (ADP)-induced aggregation test, and a collagen-induced aggregation test. 0.2 Milliliter of the PRP sample was added to 2 microliters of a solution of a test compound of predetermined concentration and this mixture was placed in a 37° C. thermostat for one minute. Then 20 microliters of an ADP or collagen solution was added to the mixture. In this test, the ADP solution was prepared by adjustment to a concentration of 7.5×10^-5 M by using Auren-Beronal buffer solution (pH 7.35). Further, the collagen solution was prepared by adjustment to a concentration of 200 micrograms/ml by using collagen reagent of "Holm"® (manufactured by Hormon-Chemie Munchen, GmbH.) which was diluted wih a physiological saline solution.
(§4) The transmittance of the resultant test mixture was determined and the change of transmittance was recorded by using the aggregometer at a stirrer speed of 1,100 r.p.m.
(§5) The platelet aggregation inhibitory effect of the test compound was measured in terms of inhibition rate (%) with respect to the aggregation rate of the controls. The aggregation rate was calculated from the following formula.
(§6) Aggregation rate=[(c-a)/(b-a)]×100
(§7) The percent inhibition is calculated from the following formula.
(§8) Inhibition rate (%)=[(A-B)/A]×100
(§9) The inhibitory effect of the test compounds on collagen-induced aggregation in rabbit platelets is shown in Table 1, similarly such effect on ADP-induced aggregation in rabbit platelets is shown in Table 2.

[2] = test system: collagen-induced aggregation in rabbit platelets; assay: Inhibition of collagen-induced platelet aggregation in rabbit platelet rich plasma; format: cell-based; details: Oryctolagus cuniculus, read-out: Inhibition rate of collagen-induced aggregation; for inhibition at 100 µM (stock): Concentration of the test compound solution 10^-4 mole; for inhibition at 10 µM (stock): Concentration of the test compound solution 10^-5 mole
Method: as §1, §2, §3, §4, §5, §6, §7, §8, §9

[3] = Change of blood pressure, intravenous administration, anesthetized dog; format: in vivo; parameters: unit not given here; details: femoral artery
Method: (§10) The change of blood flow in coronary artery and the change of blood pressure were measured by a method according to Yakura et al., [Japan Journal of Pharmacology, Vol. 57, pages 380-391 (1961)] and according to Taira, et al. [Clin. Exp. Pharmacol. Physiol., Vol. 6, pages 301-316, (1976)].
(§11) An adult bastard dog of either sex weighing 8-13 kg was anesthetized with sodium pentobarbital at the rate of 30 mg/kg by intraveneous administration, then the dog was fixed in supination and was theracotomized under a condition of forced breathing. After another intraveneous administration of sodium heparin at the rate of 500 U/kg, 100 U/kg per hour, the dog was subjected to the following experiments.
(§12) (2) Intraveneous administration
(§13) Morawitz's cannula was cannulated to the coronary sinus venosus through the auricula dextra cordis, and the blood in vein was circulated to the right carotid. The blood flow was measured by an electromagnetic blood flow meter equipped with a blood flow observation probe in the extracorporeal circulation path of the vein. The systolic force was measured by a systolometer (pick-up) placed at the left ventricle of heart, the blood pressure was measured from the femoral artery, and the heart rate was measured from the pulse. A compound to be tested was administered through the cannula being cannulated in femoral vein. The increased amount of the blood flow in coronary artery after the administration of the test compound is shown in Table 4, also the change of blood pressure is shown in Table 5.

[4] = test system: coronary artery; assay: Increased amount of the blood flow in coronary artery, intravenous administration, anesthetized dog; format: in vivo
Method: as §10, §11, §12, §13

Row | SMILES | inhibition at 100 µM (stock) [1] | inhibition at 10 µM (stock) [1] | inhibition at 100 µM (stock) [2] | inhibition at 10 µM (stock) [2] | Change of blood pressure ([3]; 3 micrograms/kg) | Change of blood pressure ([3]; 10 micrograms/kg) | Change of blood pressure ([3]; 30 micrograms/kg) | Change of blood pressure ([3]; 100 micrograms/kg) | Change of blood pressure ([3]; 300 micrograms/kg) | Increased amount of the blood flow in coronary artery ([4]; 3 micrograms/kg) | Increased amount of the blood flow in coronary artery ([4]; 10 micrograms/kg) | Increased amount of the blood flow in coronary artery ([4]; 30 micrograms/kg) | Increased amount of the blood flow in coronary artery ([4]; 100 micrograms/kg) | Increased amount of the blood flow in coronary artery ([4]; 300 micrograms/kg) | Increased amount of the blood flow in coronary artery ([4]; 1000 micrograms/kg)
1 | C=CCOc1ccc(OCCCOC(=O)C2=C(C)NC(C)=C(C(=O)OC)C2c2cccc([N+](=O)[O-])c2)c2c1NC(=O)CC2 (stereo not shown) [Compound 1, 5-{3-[2,6-Dimethyl-5-methoxycarbonyl-4-(3-nitrophenyl)-1,4-dihydropyridin-3-carboxy]-propoxy}-8-propenyloxy-3,4-dihydrocarbostyril] | 19% | 1% | 51% | 15% | -6 | -17 | -36 | -42 | -46 | 4 mL/min | 34 mL/min | 63 mL/min | 62 mL/min | 42 mL/min | 
2 | COC(=O)C1=C(C)NC(C)=C(C(=O)OCCOc2cccc3c2CCC(=O)N3)C1c1cccc([N+](=O)[O-])c1 (stereo not shown) [Compound 2, 5-{2-[2,6-Dimethyl-5-methoxycarbonyl-4-(3-nitrophenyl)-1,4-dihydropyridin-3-carboxy]-ethoxy}-3,4-dihydrocarbostyril] | 28% | 1% | 79% | 17% |  | -2 | -6 | -21 | -34 |  | 3 mL/min | 13 mL/min | 38 mL/min | 52 mL/min | 
3 | COC(=O)C1=C(C)NC(C)=C(C(=O)OCCOc2ccc3c(c2)CCC(=O)N3)C1c1cccc([N+](=O)[O-])c1 (stereo not shown) [Compound 3, 6-{2-[2,6-Dimethyl-5-methoxycarbonyl-4-(3-nitrophenyl)-1,4-dihydropyridin-3-carboxy]-ethoxy}-3,4-dihydrocarbostyril] | 100% | 27% | 100% | 97% |  | -1 | -4 | -18 | -34 | 2 mL/min | 1 mL/min | 3 mL/min | 14 mL/min | 38 mL/min | 
4 | COC(=O)C1=C(C)NC(C)=C(C(=O)OCCCOc2cccc3c2CCC(=O)N3)C1c1cccc([N+](=O)[O-])c1 (stereo not shown) [Compound 4, 5-{3-[2,6-Dimethyl-5-methoxycarbonyl-4-(3-nitrophenyl)-1,4-dihydropyridin-3-carboxy]-propoxy}-3,4-dihydrocarbostyril] | 16% | 4% | 23% | 11% | -5 | -15 | -25 | -34 | -51 | 3 mL/min | 8 mL/min | 22 mL/min | 62 mL/min | 90 mL/min | 
5 | COC(=O)C1=C(C)NC(C)=C(C(=O)OCCCOc2ccc3c(c2)CCC(=O)N3)C1c1cccc([N+](=O)[O-])c1 (stereo not shown) [Compound 5, 6-{3-[2,6-Dimethyl-5-methoxycarbonyl-4-(3-nitrophenyl)-1,4-dihydropyridin-3-carboxy]-propoxy}-3,4-dihydrocarbostyril] | 20% | 4% | 38% | 12% |  |  |  |  |  | 3 mL/min | 12 mL/min | 47 mL/min | 89 mL/min | 77 mL/min | 
6 | COC(=O)C1=C(C)NC(C)=C(C(=O)OCCN(C(=O)CCCOc2cccc3[nH]c(=O)ccc23)C2CCCCC2)C1c1cccc([N+](=O)[O-])c1 (stereo not shown) [Compound 33, N--{2-[1,4-Dihydro-2,6-dimethyl-5-methoxycarbonyl-4-(3-nitrophenyl)pyridin-3-carboxy]ethyl}-N--cyclohexyl-4-(5-carbostyriloxy)butyramide] | 98% | 25% | 100% | 34% |  |  |  |  |  |  |  |  | 1 mL/min | 4 mL/min | 48 mL/min
7 | COC(=O)C1=C(C)NC(C)=C(C(=O)OCCN(C(=O)CCCOc2ccc3[nH]c(=O)ccc3c2)C2CCCCC2)C1c1ccccc1[N+](=O)[O-] (stereo not shown) [Compound 34, N--{2-[1,4-Dihydro-2,6-dimethyl-5-methoxycarbonyl-4-(2-nitrophenyl)pyridin-3-carboxy]ethyl}-N--cyclohexyl-4-(6-carbostyriloxy)butyramide] | 94% | 98% | 100% | 100% |  |  |  |  |  |  |  |  | 22 mL/min | 47 mL/min | 54 mL/min
8 | CCN(CCOC(=O)C1=C(C)NC(C)=C(C(=O)OC)C1c1ccccc1)C(=O)CCCOc1ccc2[nH]c(=O)ccc2c1 (stereo not shown) [Compound 36, N--[2,(1,4-Dihydro-2,6-dimethyl-5-methoxycarbonyl-4-phenylpyridin-3-carboxy)ethyl]-N--ethyl-4-(6-carbostyriloxy)butyramide] | 98% | 55% | 100% | 100% |  |  |  |  |  |  |  |  | 4 mL/min | 12 mL/min | 38 mL/min
9 | COC(=O)C1=C(C)NC(C)=C(C(=O)OCCCOc2ccc3[nH]c(=O)ccc3c2)C1c1ccccc1 (stereo not shown) [Compound 44, 6-[3-(2,6-Dimethyl-5-methoxycarbonyl-4-phenyl-1,4-dihydropyridin-3-carboxy)propoxy]-carbostyril] | 100% | 20% | 100% | 25% |  | -1 | -3 | -6 | -52 |  |  |  |  |  | 
